Converted amounts (≈) assume the structure as drawn. Read-outs that look alike come from different tables or passages of the source.
Tests used:
E. coli ATCC 25922 [1] = assay: 9 h thigh muscle infection model in neutropenic mice; assay type: in vivo, CD-1 mice
Description: Using a screening-based strategy, preliminary proof-of-concept studies with V-r employed an abbreviated 9 h thigh muscle infection model in male CD-1 mice rendered neutropenic. To that end, E. coli ATCC 25922 was inoculated at 9.7×10^4 CFUs into both thigh muscles per mouse (n=5 per experimental group). V-r was administered q2h SC (110-880 mg/kg total dose) starting 1 h post-infection. At 9 h, thigh homogenates were prepared and CFUs were enumerated following culture on CLED agar.

Red blood cell lysis = assay type: cell-based; details: human, human erythrocytes; FBS-deficient media
MRSA infections = details: 150 mg/kg in rats, 100 mg/kg in dogs, 15 mg/kg in humans; cited from earlier work
HepG2 cell cytotoxicity = assay type: cell-based; details: human, HepG2 cells; FBS-deficient media
[2] = Thermodynamic solubility in saline; assay type: physicochemical; details: saline or isotonic, thermodynamic from solid; read-out: TD solubility in saline
E. coli UTI89 = assay: 24 h thigh muscle infection model in neutropenic mice; assay type: in vivo, CD-1 mice
Description: FIG. 4 illustrates the efficacy of V-r in reducing E. coli UTI89 bacterial burden in a 24 h thigh muscle infection model in neutropenic CD-1 mice.
In a 24 h thigh muscle infection model, E. coli UTI89 was inoculated at 7.8×10^4 CFU into one thigh muscle per mouse (n=5-8/group) and treated with V-r (total dose of […]) using a q6h dosing regimen from 1 h post-infection. […] Overall, V-r caused a ˜4 to 7.5 log10 reduction in bacterial burden, as compared to vehicle control, over the entire dose range.

[3] = hRPTEC biomarkers cytotoxicity screen; assay type: cell-based; details: human, human renal proximal tubular epithelial cells (hRPTEC); cell count, nuclear size, DNA structure, mitochondrial mass and membrane potential, phospholipidosis, glutathione content
[4] = Plasma protein binding, human; assay type: in vitro ADME; details: read-out: PPB, % bound, human (converted)
E. coli = assay: MIC testing, E. coli; assay type: cell-based
Description: Susceptibility testing was performed based on Clinical and Laboratory Standards Institute (CLSI) guidelines M07-A11 and M100-S29. All bacterial strains were recovered from long-term storage (−80° C.) and cultured on nutrient agar (NA) at 37° C. under aerobic conditions for approximately 20 h, except E. coli ATCC BAA-2469 that was recovered from long-term storage on nutrient agar before further passaging onto nutrient agar+25 μg/mL imipenem (according to ATCC guidelines). Minimum inhibitory concentration (MIC) assays were performed in BD non cation adjusted Mueller-Hinton broth (MHB) in 96-well flat-bottomed polystyrene plates (Corning #3370). Test articles and comparator antibiotics were prepared in sterile water to a concentration of 5.12 mg/mL. For each antibiotic stock, 2× top concentrations of test compounds and comparators were prepared in the appropriate growth medium and added to well 1 of a 96-well plate. Serial 1:1 dilutions were performed from columns 1-11 (changing tips at each dilution step); column 12 served as a positive (growth) control. A negative (sterility) control was set up in available spare wells. A suspension of each strain was prepared in sterile phosphate-buffered saline (PBS) to a density equivalent to a 0.5 McFarland standard. Bacterial suspensions were then diluted 1:150 in the appropriate medium and used to inoculate assay plates (columns 1 through 11) to provide a starting inoculum of ˜2 to 8×10^5 CFU/mL. […] The MIC was defined as the lowest concentration of test articles resulting in complete inhibition of visible growth.
MICs were determined using standard methodologies as previously described. […] Time-kill assays were performed against uropathogenic E. coli strains, including the sequence type 131 (ST131) NCTC-13341 isolate.

A. baumannii = assay: MIC testing, A. baumannii; assay type: cell-based; details: Acinetobacter baumannii
Description: (§1) Susceptibility testing was performed based on Clinical and Laboratory Standards Institute (CLSI) guidelines M07-A11 and M100-S29. All bacterial strains were recovered from long-term storage (−80° C.) and cultured on nutrient agar (NA) at 37° C. under aerobic conditions for approximately 20 h, except E. coli ATCC BAA-2469 that was recovered from long-term storage on nutrient agar before further passaging onto nutrient agar+25 μg/mL imipenem (according to ATCC guidelines). Minimum inhibitory concentration (MIC) assays were performed in BD non cation adjusted Mueller-Hinton broth (MHB) in 96-well flat-bottomed polystyrene plates (Corning #3370). Test articles and comparator antibiotics were prepared in sterile water to a concentration of 5.12 mg/mL. For each antibiotic stock, 2× top concentrations of test compounds and comparators were prepared in the appropriate growth medium and added to well 1 of a 96-well plate. Serial 1:1 dilutions were performed from columns 1-11 (changing tips at each dilution step); column 12 served as a positive (growth) control. A negative (sterility) control was set up in available spare wells. A suspension of each strain was prepared in sterile phosphate-buffered saline (PBS) to a density equivalent to a 0.5 McFarland standard. […]
(§2) MICs were determined using standard methodologies as previously described. […]

[5] = Plasma protein binding, mouse; assay type: in vitro ADME; details: read-out: PPB, % bound, mouse
[6] = test system: E. coli UNT057-1 (CTX-M-15); assay: Complicated urinary tract infection (cUTI) model
Description: Female C3H/Hej mice were placed on a 5% glucose water starting 6 days prior to infection and then for the remainder of the study. The complicated urinary tract infection (cUTI) model was established via trans-urethral injection of the bacterial inoculum. Mice were anesthetized with Ketamine HCL at 40 mg/kg body weight and Xylazine at 6 mg/kg body weight in 0.15 ml PBS injected intra-peritoneally. Using a dissection scope (10×), the urethral orifice was located and a tapered PE10 catheter (attached to MRE40 tubing and a 23 G blunt hub syringe) was inserted and 0.05 ml of the prepared inoculum slowly injected. […] E. coli UNT057-1 (CTX-M-15) strain was used for the cUTI model and inoculum grown in Tryptic soy broth (TSB) to 1.0×10^10 CFU/ml suspension. […] A positive control of meropenem was given at 300 mg/kg q12h by sub-cutaneous administration for a total of 3 days. All treatment groups consisted of 10 animals with CFU (kidneys, bladder and urine) bacterial counts at 7 days post-infection used as the endpoint for efficacy. At 7 days post-infection, urine was collected from mice into 1.5 ml sterile tubes and then mice were euthanized. Kidneys and bladders were homogenized, and the homogenates and urine were serially diluted in 1×PBS and plated onto Brain heart infusion and 0.5% charcoal agar. Agar plates were incubated at 37° C., and colony counts were recorded the following day.

in vivo [7] = details: male, CD-1, mouse, plasma, sc
E. coli ATCC 25922 [8] = assay type: cell-based
in vivo [9] = details: beagle, dog, iv, 25 mg/kg
GPB = assay: MIC testing, GPB; assay type: cell-based; details: FIG. 2
Description: as §1, §2

[10] = Single SC administration tolerability; assay type: in vivo; details: highest dose tested (800 mg/kg), male CD-1 mice
LogD (Octanol/buffer) = assay type: physicochemical
[11] = PK profiles in mice, IV vs SC administration; assay type: in vivo; details: IV 10 mg/kg, SC 20 mg/kg
Excerpt: FIG. 11 illustrates the feasibility of adaptation of V-r as a low-dose therapy to treat E. coli-associated cUTIs via sub-cutaneous administration.
Adaptation of V-r as a low-dose therapy to treat E. coli-associated cUTIs via sub-cutaneous administration was further investigated. Vancomycin can only be given by IV infusion therapy to treat systemic infections. Due to the very low dose therapy of V-r, additional modes of administration of the drug can be pursued besides IV administration pending retention of high bioavailability. In mice, the exposure of V-r (measured by the AUC) following sub-cutaneous administration was essentially 100% of that afforded by IV administration (see FIG. 11). […] Such a finding is critically important for hospitalized cUTIs (and other infections) whereby the SC route might offer a “go-home sooner” of patients and thus early discharge from the hospital for continued low dose V-r therapy from outpatient departments or within the clinical community settings. Such an approach facilitates the practice of prudent antimicrobial stewardship.

[12] = for Cl / Vd: CD-1 mice
[13] = for AUC: mice
[14] = total dose over 24 h 1272 mg/kg
[15] = total dose over 9 h 110 mg/kg, q2h SC
[16] = total dose over 24 h 200 mg/kg, q6h
[17] = total dose over 24 h 1050 mg/kg
[18] = total dose over 24 h 1400 mg/kg

CN[C@H](CC(C)C)C(=O)N[C@H]1C(=O)N[C@@H](CC(N)=O)C(=O)N[C@H]2C(=O)N[C@H]3C(=O)N[C@H](C(=O)N[C@H](C(=O)O)c4cc(O)cc(O)c4-c4cc3ccc4O)[C@H](O)c3ccc(c(Cl)c3)Oc3cc2cc(c3O[C@@H]2O[C@H](CO)[C@@H](O)[C@H](O)[C@H]2O[C@H]2C[C@](C)(N)[C@H](O)[C@H](C)O2)Oc2ccc(cc2Cl)[C@H]1O [Vancomycin, vancomycin, reference compound]
impact on E. coli burden (E. coli ATCC 25922 [1]; dose equivalent to the highest dose of V-r): failed to significantly impact E. coli burden
Log10 Group Geometric mean (CFU/g) ± SD (E. coli ATCC 25922 [1]; total dose over 9 h 800 mg/kg): 6.60 ± 0.66 Log10 CFU/g
Log10 change from vehicle (CFU/g) (E. coli ATCC 25922 [1]; total dose over 9 h 800 mg/kg): −0.51 Log10 CFU/g
CC50 (Red blood cell lysis): > 750 µM
target AUC in the treatment of MRSA infections (MRSA infections): approximately 400 mg·h/l
CC50 (HepG2 cell cytotoxicity): > 750 µM
solubility [2]: > 50 mg/mL
Log10 Group Geometric mean (CFU/g) ± SD (E. coli UTI89; [14]): 8.48 ± 1.31 Log10 CFU/g
Log10 change from vehicle (CFU/g) (E. coli UTI89; [14]): −1.23 Log10 CFU/g
CC50 [3]: > 100 µM
fraction unbound [4]: 0.5
MIC (E. coli; Escherichia coli, read-out: MICs): 64 to 256 µg/mL (≈ 44.2 to 177 µM)
MIC (A. baumannii; read-out: MICs): 64 to 256 µg/mL (≈ 44.2 to 177 µM)
fraction unbound [5]: 0.5

CN[C@H](CC(C)C)C(=O)N[C@H]1C(=O)N[C@@H](CC(N)=O)C(=O)N[C@H]2C(=O)N[C@H]3C(=O)N[C@H](C(=O)N[C@H](C(=O)N[C@H](CCCNC(=N)N)C(N)=O)c4cc(O)cc(O)c4-c4cc3ccc4O)[C@H](O)c3ccc(c(Cl)c3)Oc3cc2cc(c3O[C@@H]2O[C@H](CO)[C@@H](O)[C@H](O)[C@H]2O[C@H]2C[C@](C)(N)[C@H](O)[C@H](C)O2)Oc2ccc(cc2Cl)[C@H]1O [V-r, vancomycin-D-arginine]
reduction below stasis (E. coli ATCC 25922 [1]; 440 mg/kg): 1.0 log10
reduction below stasis (E. coli ATCC 25922 [1]; 880 mg/kg): 1.3 log10
extrapolated static dose (E. coli ATCC 25922 [1]; 9 h model, total dose): 215 mg/kg
Log10 Group Geometric mean (CFU/g) ± SD (E. coli ATCC 25922 [1]; [15]): 5.87 ± 0.60 Log10 CFU/g
Log10 change from vehicle (CFU/g) (E. coli ATCC 25922 [1]; [15]): −1.24 Log10 CFU/g
Log10 Group Geometric mean (CFU/g) ± SD (E. coli ATCC 25922 [1]; total dose over 9 h 440 mg/kg): 4.14 ± 0.63 Log10 CFU/g
Log10 change from vehicle (CFU/g) (E. coli ATCC 25922 [1]; total dose over 9 h 440 mg/kg): −2.97 Log10 CFU/g
Log10 Group Geometric mean (CFU/g) ± SD (E. coli ATCC 25922 [1]; total dose over 9 h 880 mg/kg): 3.76 ± 0.40 Log10 CFU/g
Log10 change from vehicle (CFU/g) (E. coli ATCC 25922 [1]; total dose over 9 h 880 mg/kg): −3.35 Log10 CFU/g
CC50 (Red blood cell lysis): > 750 µM
q12h dose with maximal abrogation of bacterial burden, bladder ([6]; bladder, q12h for 3 days): 25 mg/kg
required daily 24 h dose to cause maximal reductions in bacterial burden ([6]; kidney): 100 mg/kg
q12h dose with maximal abrogation of bacterial burden, kidney ([6]; kidney, q12h for 3 days): 50 mg/kg
required daily 24 h dose to cause maximal reductions in bacterial burden ([6]; urine and bladder): 50 mg/kg
q12h dose with maximal abrogation of bacterial burden, urine ([6]; urine, q12h for 3 days): 25 mg/kg
AUC (in vivo [7]; 20 mg/kg): 42.7 µg·h/mL
Cmax (in vivo [7]; 20 mg/kg): 20.4 µg/mL
half-life (in vivo [7]; 20 mg/kg): 0.87 h
AUC (in vivo [7]; 121 mg/kg): 366 µg·h/mL
Cmax (in vivo [7]; 121 mg/kg): 98.4 µg/mL
half-life (in vivo [7]; 121 mg/kg): 1.29 h
FOR (at 8 × MIC) (E. coli ATCC 25922 [8]): <2.32 × 10^−10
AUC (in vivo [9]): 580 µg·h/mL
CC50 (HepG2 cell cytotoxicity): > 750 µM
antimicrobial potency towards a number of GPB (GPB): remained intact
tolerability of a single SC administration [10]: well tolerated
logD (LogD (Octanol/buffer)): < -4.01
exposure following sub-cutaneous vs IV administration [11]: essentially equivalent
solubility [2]: 373 mg/mL (≈ 232000 µM)
Cl ([12]; SC 20 mg/kg): 7.8 mL/min/kg
Vd ([12]; SC 20 mg/kg): 0.59 L/kg
Cl ([12]; SC 121 mg/kg): 5.4 mL/min/kg
Vd ([12]; SC 121 mg/kg): 0.60 L/kg
elimination kinetics ([12]; SC administration): first-order elimination
reduction of burden below stasis (E. coli UTI89; all doses higher than 200 mg/kg): up to 2.7 log10 CFU/g
total 24 h dose reducing E. coli burden to pre-treatment (stasis) levels (E. coli UTI89; static dose): 250 mg/kg
reduction of E. coli burden (E. coli UTI89; thigh muscle model): > 7 log10 CFU/g
Log10 Group Geometric mean (CFU/g) ± SD (E. coli UTI89; [16]): 5.60 ± 2.28 Log10 CFU/g
Log10 change from vehicle (CFU/g) (E. coli UTI89; [16]): −4.11 Log10 CFU/g
Log10 Group Geometric mean (CFU/g) ± SD (E. coli UTI89; total dose over 24 h 400 mg/kg): 3.27 ± 1.88 Log10 CFU/g
Log10 change from vehicle (CFU/g) (E. coli UTI89; total dose over 24 h 400 mg/kg): −6.43 Log10 CFU/g
Log10 Group Geometric mean (CFU/g) ± SD (E. coli UTI89; total dose over 24 h 700 mg/kg): 2.58 ± 0.25 Log10 CFU/g
Log10 change from vehicle (CFU/g) (E. coli UTI89; total dose over 24 h 700 mg/kg): −7.13 Log10 CFU/g
Log10 Group Geometric mean (CFU/g) ± SD (E. coli UTI89; [17]): 2.08 ± 0.89 Log10 CFU/g
Log10 change from vehicle (CFU/g) (E. coli UTI89; [17]): −7.63 Log10 CFU/g
Log10 Group Geometric mean (CFU/g) ± SD (E. coli UTI89; [18]): 2.68 ± 1.38 Log10 CFU/g
Log10 change from vehicle (CFU/g) (E. coli UTI89; [18]): −7.03 Log10 CFU/g
CC50 [3]: > 100 µM
AUC ([13]; single IV 25 mg/kg, 25 mg/kg): 43.27 µg·h/mL
AUC ([13]; single IV 50 mg/kg, 50 mg/kg): 103.64 µg·h/mL
PK profile ([13]; single IV 1-50 mg/kg): linear
fraction unbound [4]: 0.24
MIC range (E. coli): 8 to 16 µg/mL
MIC (E. coli; Escherichia coli): 8 µg/mL (≈ 4.99 µM)
MIC90 (E. coli; Escherichia coli): 16 µg/mL (≈ 9.97 µM)
MIC (A. baumannii): 8 µg/mL (≈ 4.99 µM)
